Test results from patent US10532977B2, “Small molecule inhibitors of protein tyrosine phosphatases and uses thereof” (Indiana University Research and Technology Corporation, priority 2015, dated 2020).
One block for each compound: values may come before it.

Assays:
[1] = biological target: CD45 (Homo sapiens, UniProt P08575); assay: CD45 inhibition, pNPP substrate; format: biochemical; conditions: pNPP at Km, pH 7.0, 25° C.
[2] = biological target: T1, VHZ (Homo sapiens, UniProt Q9BVJ7); assay: VHZ inhibition, pNPP substrate; format: biochemical; conditions: pNPP at Km, pH 7.0, 25° C.
T1 construct: made in house
T1 sequence (Q9BVJ7 whole entry, species assumed): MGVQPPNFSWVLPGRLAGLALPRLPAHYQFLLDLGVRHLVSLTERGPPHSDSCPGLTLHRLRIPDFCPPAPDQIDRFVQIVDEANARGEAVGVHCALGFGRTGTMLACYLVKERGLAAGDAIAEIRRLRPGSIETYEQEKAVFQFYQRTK

[3] = biological target: VHR (Homo sapiens, UniProt P51452); assay: VHR inhibition, pNPP substrate; format: biochemical; conditions: pNPP at Km, pH 7.0, 25° C.
Sequence of VHR (P51452 whole entry): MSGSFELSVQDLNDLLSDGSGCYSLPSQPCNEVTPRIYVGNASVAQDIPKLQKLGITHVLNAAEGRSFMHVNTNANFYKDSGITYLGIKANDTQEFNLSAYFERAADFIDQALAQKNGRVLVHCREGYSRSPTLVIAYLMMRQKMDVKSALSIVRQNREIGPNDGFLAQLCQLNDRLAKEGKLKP

[4] = biological target: PTP1B (Homo sapiens, UniProt P18031); assay: PTP1B inhibition, pNPP substrate; format: biochemical; conditions: pNPP at Km, pH 7.0, 25° C.
[5] = biological target: PP5 (Homo sapiens, UniProt P53041); assay: PP5 inhibition, pNPP substrate; format: biochemical, mammalian; conditions: pNPP at Km, pH 7.0, 25° C.
[6] = biological target: Meg2 (Homo sapiens, UniProt P43378); assay: Meg2 inhibition, pNPP substrate; format: biochemical; conditions: pNPP at Km, pH 7.0, 25° C.
Sequence of Meg2 (P43378 whole entry): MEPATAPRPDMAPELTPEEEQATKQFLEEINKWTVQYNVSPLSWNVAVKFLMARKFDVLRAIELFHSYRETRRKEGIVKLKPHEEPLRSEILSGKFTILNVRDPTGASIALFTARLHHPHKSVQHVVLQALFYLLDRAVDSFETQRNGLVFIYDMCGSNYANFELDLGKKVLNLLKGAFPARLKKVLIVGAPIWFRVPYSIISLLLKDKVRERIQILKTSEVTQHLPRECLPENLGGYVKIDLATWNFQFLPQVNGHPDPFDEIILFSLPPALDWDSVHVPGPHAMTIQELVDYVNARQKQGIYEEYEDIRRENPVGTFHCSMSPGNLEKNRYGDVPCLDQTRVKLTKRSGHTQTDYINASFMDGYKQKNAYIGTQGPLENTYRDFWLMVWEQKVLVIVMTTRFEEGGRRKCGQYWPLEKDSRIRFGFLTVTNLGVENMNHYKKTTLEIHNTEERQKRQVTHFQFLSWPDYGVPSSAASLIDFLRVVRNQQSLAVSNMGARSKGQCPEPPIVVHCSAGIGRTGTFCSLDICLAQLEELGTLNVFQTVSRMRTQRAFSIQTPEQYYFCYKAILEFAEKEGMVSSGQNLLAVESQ

[7] = biological target: PTPγ (Homo sapiens, UniProt P23470); assay: PTPγ inhibition, pNPP substrate; format: biochemical; conditions: pNPP at Km, pH 7.0, 25° C.
Sequence of PTPγ (P23470 20-1445): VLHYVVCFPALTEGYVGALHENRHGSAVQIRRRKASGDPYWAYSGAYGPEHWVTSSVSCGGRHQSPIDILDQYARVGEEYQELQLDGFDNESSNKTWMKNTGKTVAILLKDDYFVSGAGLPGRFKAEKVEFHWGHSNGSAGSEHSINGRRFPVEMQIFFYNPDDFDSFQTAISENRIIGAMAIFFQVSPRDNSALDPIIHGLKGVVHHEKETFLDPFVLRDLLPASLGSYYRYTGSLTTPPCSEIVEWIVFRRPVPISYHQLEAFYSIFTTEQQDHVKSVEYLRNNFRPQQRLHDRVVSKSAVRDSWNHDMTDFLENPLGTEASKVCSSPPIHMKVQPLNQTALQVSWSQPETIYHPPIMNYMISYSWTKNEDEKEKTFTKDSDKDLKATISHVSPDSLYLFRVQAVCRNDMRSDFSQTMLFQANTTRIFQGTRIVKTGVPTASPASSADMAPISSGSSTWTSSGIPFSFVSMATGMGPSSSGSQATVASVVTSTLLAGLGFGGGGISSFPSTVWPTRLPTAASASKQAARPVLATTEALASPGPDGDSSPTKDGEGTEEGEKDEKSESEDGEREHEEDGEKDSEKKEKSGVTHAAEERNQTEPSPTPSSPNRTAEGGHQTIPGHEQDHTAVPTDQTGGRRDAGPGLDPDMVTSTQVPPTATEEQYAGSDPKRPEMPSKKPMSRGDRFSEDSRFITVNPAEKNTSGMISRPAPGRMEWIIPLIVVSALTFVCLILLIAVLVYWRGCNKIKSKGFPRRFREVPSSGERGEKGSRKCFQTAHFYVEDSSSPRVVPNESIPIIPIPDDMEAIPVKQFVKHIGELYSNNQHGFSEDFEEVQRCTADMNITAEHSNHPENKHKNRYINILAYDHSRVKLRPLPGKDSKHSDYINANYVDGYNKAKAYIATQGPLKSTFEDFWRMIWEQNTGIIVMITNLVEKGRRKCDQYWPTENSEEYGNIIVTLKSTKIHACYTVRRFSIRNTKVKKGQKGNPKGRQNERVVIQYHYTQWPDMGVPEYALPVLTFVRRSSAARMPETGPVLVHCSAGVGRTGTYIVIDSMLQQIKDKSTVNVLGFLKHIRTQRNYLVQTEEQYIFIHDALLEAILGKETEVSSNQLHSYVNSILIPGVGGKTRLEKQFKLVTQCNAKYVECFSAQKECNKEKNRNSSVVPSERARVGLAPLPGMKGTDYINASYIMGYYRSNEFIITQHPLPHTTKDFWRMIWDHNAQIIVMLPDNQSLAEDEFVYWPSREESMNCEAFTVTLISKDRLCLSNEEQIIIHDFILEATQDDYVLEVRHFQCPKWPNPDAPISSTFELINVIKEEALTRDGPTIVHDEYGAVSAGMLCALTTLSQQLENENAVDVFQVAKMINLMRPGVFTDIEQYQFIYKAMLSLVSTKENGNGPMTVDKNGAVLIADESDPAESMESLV

[8] = biological target: LAR (Homo sapiens, UniProt P10586); assay: LAR inhibition, pNPP substrate; format: biochemical; conditions: pNPP at Km, pH 7.0, 25° C.
[9] = biological target: T2, Ssu72 (Homo sapiens, UniProt Q9NP77); assay: Ssu72 inhibition, pNPP substrate; format: biochemical; conditions: pH 7
T2 construct: made in house
T2 sequence (Q9NP77 whole entry): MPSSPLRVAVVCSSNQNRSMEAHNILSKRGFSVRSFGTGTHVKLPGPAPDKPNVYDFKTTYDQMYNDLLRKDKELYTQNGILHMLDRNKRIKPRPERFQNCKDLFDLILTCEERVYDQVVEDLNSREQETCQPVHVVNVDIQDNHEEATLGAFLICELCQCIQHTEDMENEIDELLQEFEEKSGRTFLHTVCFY

[10] = biological target: SHP1 (Homo sapiens, UniProt P29350); assay: SHP1 inhibition, pNPP substrate; format: biochemical; conditions: pNPP at Km, pH 7.0, 25° C.
Sequence of SHP1 (P29350 whole entry): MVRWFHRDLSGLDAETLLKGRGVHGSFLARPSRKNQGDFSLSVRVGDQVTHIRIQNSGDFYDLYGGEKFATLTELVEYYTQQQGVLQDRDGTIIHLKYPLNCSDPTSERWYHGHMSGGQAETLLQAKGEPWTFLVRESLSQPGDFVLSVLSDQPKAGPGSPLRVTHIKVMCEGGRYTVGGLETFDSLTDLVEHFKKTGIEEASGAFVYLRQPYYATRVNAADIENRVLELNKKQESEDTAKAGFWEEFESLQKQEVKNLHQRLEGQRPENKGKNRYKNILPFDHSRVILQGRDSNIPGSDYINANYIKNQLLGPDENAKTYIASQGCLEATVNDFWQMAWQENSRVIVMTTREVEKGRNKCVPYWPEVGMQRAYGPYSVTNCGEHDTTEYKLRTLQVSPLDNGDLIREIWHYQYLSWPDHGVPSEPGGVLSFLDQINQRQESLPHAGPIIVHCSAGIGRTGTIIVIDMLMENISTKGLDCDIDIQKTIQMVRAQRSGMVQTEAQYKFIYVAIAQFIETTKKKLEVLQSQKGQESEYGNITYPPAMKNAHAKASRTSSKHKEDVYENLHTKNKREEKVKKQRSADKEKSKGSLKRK

[11] = biological target: FAP1 (Homo sapiens, UniProt Q12923); assay: FAP1 inhibition, pNPP substrate; format: biochemical; conditions: pH 7
[12] = biological target: PTPε (Homo sapiens, UniProt P23469); assay: PTPε inhibition, pNPP substrate; format: biochemical, mammalian; conditions: pNPP at Km, pH 7.0, 25° C.
[13] = biological target: PTPα (Homo sapiens, UniProt P18433); assay: PTPα inhibition, pNPP substrate; format: biochemical; conditions: pNPP at Km, pH 7.0, 25° C.
[14] = biological target: LYP (Homo sapiens, UniProt Q9Y2R2); assay: LYP inhibition, pNPP substrate; format: biochemical; conditions: pNPP at Km, pH 7.0, 25° C.
Sequence of LYP (Q9Y2R2 whole entry): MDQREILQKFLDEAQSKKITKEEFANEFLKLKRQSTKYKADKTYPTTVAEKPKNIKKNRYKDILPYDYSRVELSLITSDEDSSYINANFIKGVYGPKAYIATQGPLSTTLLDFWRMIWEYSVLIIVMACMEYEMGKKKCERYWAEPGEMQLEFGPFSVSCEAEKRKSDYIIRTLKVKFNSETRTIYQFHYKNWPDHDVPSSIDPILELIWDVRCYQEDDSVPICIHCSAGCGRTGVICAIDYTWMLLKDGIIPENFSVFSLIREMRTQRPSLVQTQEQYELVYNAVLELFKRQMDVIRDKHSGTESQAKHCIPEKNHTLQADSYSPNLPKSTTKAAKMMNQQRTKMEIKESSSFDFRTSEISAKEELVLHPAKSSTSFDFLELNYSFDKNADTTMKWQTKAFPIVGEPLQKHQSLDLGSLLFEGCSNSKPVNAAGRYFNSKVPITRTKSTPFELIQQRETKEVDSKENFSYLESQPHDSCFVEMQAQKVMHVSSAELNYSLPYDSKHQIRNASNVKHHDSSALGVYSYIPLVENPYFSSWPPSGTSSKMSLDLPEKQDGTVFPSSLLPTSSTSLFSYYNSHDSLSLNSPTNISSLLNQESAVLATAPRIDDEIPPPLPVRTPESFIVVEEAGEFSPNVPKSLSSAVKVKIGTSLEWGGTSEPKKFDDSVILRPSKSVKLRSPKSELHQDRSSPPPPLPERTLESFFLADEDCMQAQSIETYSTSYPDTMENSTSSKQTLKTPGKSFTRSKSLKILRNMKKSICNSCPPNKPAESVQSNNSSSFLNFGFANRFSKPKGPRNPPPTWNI

[15] = biological target: MKP3 (Homo sapiens, UniProt Q16828); assay: MKP3 inhibition, pNPP substrate; format: biochemical; conditions: pH 7
[16] = biological target: PTPσ (Homo sapiens, UniProt Q13332); assay: PTPσ inhibition, pNPP substrate; format: biochemical; conditions: pH 7
[17] = biological target: TcPTP (Homo sapiens, UniProt P17706); assay: TcPTP inhibition, pNPP substrate; format: biochemical; conditions: pH 7
Sequence of TcPTP (P17706 whole entry): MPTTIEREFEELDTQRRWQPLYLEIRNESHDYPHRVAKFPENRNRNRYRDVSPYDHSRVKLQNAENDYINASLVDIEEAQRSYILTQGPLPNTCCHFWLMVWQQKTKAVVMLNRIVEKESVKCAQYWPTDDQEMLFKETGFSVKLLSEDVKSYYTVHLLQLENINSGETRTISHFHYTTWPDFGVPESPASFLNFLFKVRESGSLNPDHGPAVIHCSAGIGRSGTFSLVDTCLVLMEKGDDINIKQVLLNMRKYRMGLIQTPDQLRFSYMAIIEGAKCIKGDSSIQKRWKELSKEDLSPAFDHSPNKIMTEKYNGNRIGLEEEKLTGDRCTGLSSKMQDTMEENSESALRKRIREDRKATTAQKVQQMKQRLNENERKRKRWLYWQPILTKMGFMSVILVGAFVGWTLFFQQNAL

[18] = biological target: T3, SHP2 (Homo sapiens, UniProt Q06124); assay: SHP2 inhibition, pNPP substrate; format: biochemical; conditions: pNPP at Km, pH 7.0, 25° C.
T3 sequence (Q06124 224-528): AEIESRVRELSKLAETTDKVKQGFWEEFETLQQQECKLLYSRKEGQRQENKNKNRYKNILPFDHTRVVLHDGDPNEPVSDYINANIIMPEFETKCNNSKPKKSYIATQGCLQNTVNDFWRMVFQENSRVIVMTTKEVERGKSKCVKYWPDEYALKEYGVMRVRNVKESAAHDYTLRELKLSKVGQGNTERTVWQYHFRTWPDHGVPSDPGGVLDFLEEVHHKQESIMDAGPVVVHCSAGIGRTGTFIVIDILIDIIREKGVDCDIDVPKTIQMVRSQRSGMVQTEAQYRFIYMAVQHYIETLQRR

[19] = biological target: PTPβ (Homo sapiens, UniProt P23467); assay: PTPβ inhibition, pNPP substrate; format: biochemical, mammalian; conditions: pNPP at Km, pH 7.0, 25° C.
[20] = biological target: CDC14A (Homo sapiens, UniProt Q9UNH5); assay: CDC14A inhibition, pNPP substrate; format: biochemical; conditions: pNPP at Km, pH 7.0, 25° C.
[21] = biological target: PTPμ (Homo sapiens, UniProt P28827); assay: PTPμ inhibition, pNPP substrate; format: biochemical, mammalian; conditions: pNPP at Km, pH 7.0, 25° C.
[22] = biological target: HePTP (Homo sapiens, UniProt P35236); assay: HePTP inhibition, pNPP substrate; format: biochemical; conditions: pNPP at Km, pH 7.0, 25° C.
Sequence of HePTP (P35236 whole entry): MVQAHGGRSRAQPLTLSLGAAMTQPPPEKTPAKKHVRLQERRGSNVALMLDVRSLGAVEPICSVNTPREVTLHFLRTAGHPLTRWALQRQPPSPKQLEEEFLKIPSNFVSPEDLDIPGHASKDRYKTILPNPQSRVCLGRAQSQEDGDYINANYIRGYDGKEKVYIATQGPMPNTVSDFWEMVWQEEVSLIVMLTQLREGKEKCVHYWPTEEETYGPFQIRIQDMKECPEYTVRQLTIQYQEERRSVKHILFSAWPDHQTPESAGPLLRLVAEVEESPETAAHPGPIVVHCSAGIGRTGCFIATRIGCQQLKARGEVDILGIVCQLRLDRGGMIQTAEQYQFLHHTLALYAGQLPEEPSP

[23] = biological target: PEST (Homo sapiens, UniProt Q05209); assay: PEST inhibition, pNPP substrate; format: biochemical
[24] = biological target: T4, Laforin (Homo sapiens, UniProt O95278); assay: Laforin inhibition, pNPP substrate; format: biochemical
T4 sequence (O95278 1-331): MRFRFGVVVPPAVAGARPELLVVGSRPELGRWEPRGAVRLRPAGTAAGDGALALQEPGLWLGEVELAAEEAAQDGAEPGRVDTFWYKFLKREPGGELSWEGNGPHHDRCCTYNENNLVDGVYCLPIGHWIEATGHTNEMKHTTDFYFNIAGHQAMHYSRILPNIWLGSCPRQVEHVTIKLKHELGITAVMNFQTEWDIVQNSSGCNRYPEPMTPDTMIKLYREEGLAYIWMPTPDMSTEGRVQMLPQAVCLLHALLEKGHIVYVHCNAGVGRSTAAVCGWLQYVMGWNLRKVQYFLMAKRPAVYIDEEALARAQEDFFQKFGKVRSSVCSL

[25] = biological target: LMWPTP (Homo sapiens, UniProt P24666); assay: biochemical
Sequence of LMWPTP (P24666 whole entry): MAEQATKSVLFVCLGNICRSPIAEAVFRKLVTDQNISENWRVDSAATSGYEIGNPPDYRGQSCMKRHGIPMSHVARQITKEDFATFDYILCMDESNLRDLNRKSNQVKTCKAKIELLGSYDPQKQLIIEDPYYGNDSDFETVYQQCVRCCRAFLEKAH

Structure (SMILES): Cc1c(Br)cc(NC(=O)C(c2ccccc2)S(=O)(=O)O)cc1Br (stereo not shown) [Compound L319M34]
- IC50 [1]: > 200 µM
- IC50 [2]: > 200 µM
- IC50 [3]: > 200 µM
- IC50 [4]: > 200 µM
- IC50 [5]: > 200 µM
- IC50 [6]: > 200 µM
- IC50 [7]: > 200 µM
- IC50 [8]: > 200 µM
- IC50 [9]: > 200 µM
- IC50 [10]: > 200 µM
- IC50 [11]: > 200 µM
- IC50 [12]: > 200 µM
- IC50 [13]: > 200 µM
- IC50 [14]: > 200 µM
- IC50 [15]: > 200 µM
- IC50 [16]: > 200 µM
- IC50 [17]: > 200 µM
- IC50 [18]: > 200 µM
- IC50 [19]: > 200 µM
- IC50 [20]: > 200 µM
- IC50 [21]: > 200 µM
- IC50 [22]: > 200 µM

- IC50 [23]: 26.5 µM
- IC50 [24]: 2200 nM
- IC50 [25]: 23.6 µM
Structure (SMILES): O=C(Nc1nnc(-c2ccc(Br)cc2)s1)C(c1ccccc1)S(=O)(=O)O (stereo not shown) [Compound L319M79]
